Source: patent publication US20260207604A1, “COMPOUND AND USE THEREOF” (ONQUALITY PHARMACEUTICALS CHINA LTD., priority 2022, published 2026)
pIC50: −log10 of the molar value.

Key:
CDK6/cyclin D = CDK6/cyclin D (Homo sapiens, UniProt Q00534); experiment: KinaseProfile radiometric protein kinase assay, CDK6/cyclin D; assay type: biochemical
Experimental: (§1) The KinaseProfile radiometric protein kinase assay was used to evaluate the inhibitory activity of the compounds against CDK2/cyclin E, CDK4/cyclin D, CDK6/cyclin D, CDK7/cyclin H and CDK9/cyclin T.
(§2) The compounds were prepared in 100% DMSO at a final 50× stock concentration. The working stock solution was added as the first component to the assay wells. CDK2/cyclin E, CDK4/cyclin D, CDK6/cyclin D, CDK7/cyclin H, and CDK9/cyclin T were added in their respective kinase buffers: (CDK4: 8 mM MOPS pH 7.0, 0.2 mM EDTA, 0.03% BSA, 0.03% Tween 20, 20 mM DTT, and 0.2 mg/ml Rb fragment, 10 mM Magnesium acetate; CDK2, CDK6: 8 mM MOPS pH 7.0, 0.2 mM EDTA, 0.1 mg/mL histone H1, 10 mM Magnesium acetate; CDK7: 8 mM MOPS pH 7.0, 0.2 mM EDTA, 500 μM peptide, 10 mM Magnesium acetate; CDK9: 8 mM MOPS pH 7.0, 0.2 mM EDTA, 100 μM […], 10 mM Magnesium acetate) and [γ-^33 P-ATP] was included in the reaction mixture. The reaction was initiated by the addition of the Mg/ATP mixture and incubated at room temperature for 40 minutes. The reaction was terminated by the addition of 0.5% phosphoric acid. Then, 10 μL of the reaction mixture was spotted onto P30 filter pads, washed four times (1 minute each) with 0.425% phosphoric acid, followed by a single wash with methanol. The pads were then dried and counted. The data were recorded, inhibition rates were calculated, and IC50 values were determined accordingly. Table 2 summarizes the in vitro enzymatic inhibitory activity of the compounds of the present application.

CDK9/cyclin T = CDK9/cyclin T (Homo sapiens, UniProt P50750); experiment: KinaseProfile radiometric protein kinase assay, CDK9/cyclin T; assay type: biochemical
Experimental: as §1, §2

[1] = test system: 5-FU-induced diarrhea model; experiment: 5-FU-induced diarrhea model, 5-FU 1-day model; assay type: in vivo, Balb/c mice; conditions: 5-FU 175 mg/kg once a day, mice
Text: The 5-FU-induced diarrhea model was used as an experimental model of the present invention to evaluate the in vivo activity of the compounds.
Balb/c mice (20-25 g, 7-8 weeks old, Jihui) were acclimated for one week and then randomly assigned to 3 groups (n=10 per group): control group, 5-FU group, and CDK inhibitor group. The control group received the same vehicle as the CDK inhibitor group by oral gavage, followed by injection of the same vehicle as the 5-FU group. The 5-FU group received the same vehicle by oral gavage as the CDK inhibitor group, followed by 5-FU injection. The CDK inhibitor group received oral administration of the CDK inhibitor, followed by 5-FU injection. From day 1 to day 7, the severity of diarrhea was assessed for each mouse according to the diarrhea scoring system.
The diarrhea scoring system was based on the method by Akinobu Kurita (Cancer Chemother Pharmacol 2000; 46:211-20), Grade 0: normal stool; Grade 1: mild diarrhea, slightly soft stool and wet stool; Grade 2: moderate diarrhea, loose stool with slight perianal staining; Grade 3: severe diarrhea, loose watery stool with severe perianal staining.
The diarrhea relief rate (%) was calculated as follows: […]

[2] = test system: Irinotecan-induced diarrhea model; experiment: Irinotecan-induced diarrhea model; assay type: in vivo, Balb/c mice; conditions: irinotecan 230 mg/kg once a day, 1 day, mice
Text: Irinotecan-induced diarrhea and/or constipation models were employed as additional in vivo experimental models to evaluate the activity of the compounds of the present application.
Balb/c mice (20-25 g, 7-8 weeks old, Jihui) were acclimated for one week and then randomly assigned to 3 groups (n=10 per group): control group, irinotecan group, and CDK inhibitor group. Control group: received the same vehicle as the CDK inhibitor group by oral gavage, followed by injection of the same vehicle as the irinotecan group; irinotecan group: received the same vehicle by oral gavage as the CDK inhibitor group, followed by injection of irinotecan; CDK inhibitor group: received oral administration of the CDK inhibitor, followed by injection of irinotecan.
In the irinotecan group, approximately 6 to 9 out of 10 mice developed diarrhea. From Day 1 to Day 7, the severity of diarrhea in each mouse was evaluated using the following scoring criteria:
The diarrhea scoring system was based on the method by Akinobu Kurita (Cancer Chemother Pharmacol 2000; 46:211-20), Grade 0: normal stool; Grade 1: mild diarrhea, slightly soft stool and wet stool; Grade 2: moderate diarrhea, loose stool with slight perianal staining; Grade 3: severe diarrhea, loose watery stool with severe perianal staining. Calculate the diarrhea Relief rate of compound treatment. Relief rate (%)=(diarrhea score of irinotecan group−diarrhea score of CDK inhibitor group)/diarrhea score of irinotecan group×100%.

CDK7/cyclin H = CDK7/cyclin H (Homo sapiens, UniProt P50613); experiment: KinaseProfile radiometric protein kinase assay, CDK7/cyclin H; assay type: biochemical
Experimental: as §1, §2

[3] = test system: Human colorectal cancer COLO205 cells; experiment: Cell apoptosis assay (Caspase-Glo 3/7), 5-FU-induced apoptosis; assay type: cell-based
Experimental: The Caspase-Glo® 3/7 assay was employed to evaluate the protective effect of the compounds of the present invention against 5-fluorouracil (5-FU)-induced apoptosis. Human colorectal cancer COLO205 cells were cultured in RPMI 1640 medium (Invitrogen) in an incubator at 37° C. with 5% CO2.
COLO205 cells were seeded in 96-well plates at a density of 4,000 cells per well and incubated overnight. On the following day, serially diluted concentrations of Compound 1 were added to the wells and incubated for 16 hours. Afterward, 5-FU was added and the cells were incubated for an additional 48 hours. Subsequently, Caspase-Glo® 3/7 reagent (100 μL) was added to each well. The cells were mixed on an orbital shaker for 10 min and incubated at room temperature for 2 h. After an additional 10-minute incubation, the plate was measured using the Envision instrument and the data was processed. Relief rate (%)=(5-FU group−CDK group)/5-FU group×100%.

[4] = 25 mg/kg oral, 6 hours before and 6 hours after irinotecan

CDK7/cyclin H, sequence (P50613 whole entry): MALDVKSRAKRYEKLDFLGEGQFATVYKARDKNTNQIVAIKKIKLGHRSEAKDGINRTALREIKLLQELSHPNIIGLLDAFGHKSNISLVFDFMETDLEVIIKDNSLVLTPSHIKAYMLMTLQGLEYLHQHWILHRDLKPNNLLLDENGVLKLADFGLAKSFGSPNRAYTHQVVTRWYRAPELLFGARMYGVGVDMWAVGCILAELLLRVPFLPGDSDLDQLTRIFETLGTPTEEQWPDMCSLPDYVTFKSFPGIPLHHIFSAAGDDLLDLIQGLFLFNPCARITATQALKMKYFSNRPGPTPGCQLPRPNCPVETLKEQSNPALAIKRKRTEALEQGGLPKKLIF
CDK7/cyclin H, sequence (P51946 whole entry partner): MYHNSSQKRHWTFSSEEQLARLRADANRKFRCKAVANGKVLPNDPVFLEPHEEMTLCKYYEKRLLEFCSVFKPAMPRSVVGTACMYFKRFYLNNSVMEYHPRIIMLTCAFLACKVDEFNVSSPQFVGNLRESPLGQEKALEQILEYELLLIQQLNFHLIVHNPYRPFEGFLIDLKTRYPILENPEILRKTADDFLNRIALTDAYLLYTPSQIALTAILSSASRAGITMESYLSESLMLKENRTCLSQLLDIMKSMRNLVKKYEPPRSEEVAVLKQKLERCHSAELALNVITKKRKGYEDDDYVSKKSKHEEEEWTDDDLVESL
CDK7/cyclin H, sequence (P51948 whole entry partner): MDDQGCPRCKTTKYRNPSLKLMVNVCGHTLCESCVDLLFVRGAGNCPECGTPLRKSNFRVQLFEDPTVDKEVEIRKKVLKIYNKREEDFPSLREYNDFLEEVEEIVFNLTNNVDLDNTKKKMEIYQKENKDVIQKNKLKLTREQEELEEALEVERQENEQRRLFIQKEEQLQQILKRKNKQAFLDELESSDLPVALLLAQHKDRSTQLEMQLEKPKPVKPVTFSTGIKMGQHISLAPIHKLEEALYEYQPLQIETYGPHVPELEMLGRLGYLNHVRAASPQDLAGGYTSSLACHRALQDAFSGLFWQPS
CDK9/cyclin T, sequence (P50750 whole entry): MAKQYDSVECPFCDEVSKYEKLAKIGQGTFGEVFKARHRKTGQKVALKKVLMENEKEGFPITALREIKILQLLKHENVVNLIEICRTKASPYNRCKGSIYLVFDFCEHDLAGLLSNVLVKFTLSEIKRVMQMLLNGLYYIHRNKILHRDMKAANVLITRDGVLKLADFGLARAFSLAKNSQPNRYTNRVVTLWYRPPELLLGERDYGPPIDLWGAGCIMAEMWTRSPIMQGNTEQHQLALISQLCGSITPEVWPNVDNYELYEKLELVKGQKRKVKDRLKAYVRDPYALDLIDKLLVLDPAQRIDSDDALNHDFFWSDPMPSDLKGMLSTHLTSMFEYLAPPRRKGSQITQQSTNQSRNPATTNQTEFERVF
CDK9/cyclin T, sequence (O60563 whole entry partner): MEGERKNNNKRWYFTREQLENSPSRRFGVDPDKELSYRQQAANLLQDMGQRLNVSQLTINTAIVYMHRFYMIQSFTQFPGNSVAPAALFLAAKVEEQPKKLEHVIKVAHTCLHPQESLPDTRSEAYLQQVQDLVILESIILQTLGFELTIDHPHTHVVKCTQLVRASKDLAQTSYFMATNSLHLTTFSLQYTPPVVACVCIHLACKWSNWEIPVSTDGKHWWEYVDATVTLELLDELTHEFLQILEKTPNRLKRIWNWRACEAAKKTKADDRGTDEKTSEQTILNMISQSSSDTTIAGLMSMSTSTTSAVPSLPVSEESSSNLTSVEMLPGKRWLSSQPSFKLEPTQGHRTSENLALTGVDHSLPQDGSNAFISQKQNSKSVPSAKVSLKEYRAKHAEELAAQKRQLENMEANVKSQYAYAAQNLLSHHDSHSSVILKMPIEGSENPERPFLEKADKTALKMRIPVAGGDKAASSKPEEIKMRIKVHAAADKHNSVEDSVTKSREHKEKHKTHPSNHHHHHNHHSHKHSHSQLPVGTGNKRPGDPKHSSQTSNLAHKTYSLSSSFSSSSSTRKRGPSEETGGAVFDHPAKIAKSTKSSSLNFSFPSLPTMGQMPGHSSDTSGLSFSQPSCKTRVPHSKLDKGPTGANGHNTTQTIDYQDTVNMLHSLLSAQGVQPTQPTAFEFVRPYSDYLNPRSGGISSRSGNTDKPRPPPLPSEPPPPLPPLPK
CDK6/cyclin D, sequence (Q00534 whole entry): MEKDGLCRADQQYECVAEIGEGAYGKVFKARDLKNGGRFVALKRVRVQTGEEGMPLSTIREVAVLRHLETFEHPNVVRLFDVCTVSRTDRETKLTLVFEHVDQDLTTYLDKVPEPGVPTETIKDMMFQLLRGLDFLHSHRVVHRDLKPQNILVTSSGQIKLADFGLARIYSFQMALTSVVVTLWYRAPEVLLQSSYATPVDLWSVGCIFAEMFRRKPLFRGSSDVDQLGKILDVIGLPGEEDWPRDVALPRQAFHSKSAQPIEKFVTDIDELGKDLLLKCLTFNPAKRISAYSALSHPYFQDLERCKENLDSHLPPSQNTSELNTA
CDK6/cyclin D, sequence (P30281 whole entry partner): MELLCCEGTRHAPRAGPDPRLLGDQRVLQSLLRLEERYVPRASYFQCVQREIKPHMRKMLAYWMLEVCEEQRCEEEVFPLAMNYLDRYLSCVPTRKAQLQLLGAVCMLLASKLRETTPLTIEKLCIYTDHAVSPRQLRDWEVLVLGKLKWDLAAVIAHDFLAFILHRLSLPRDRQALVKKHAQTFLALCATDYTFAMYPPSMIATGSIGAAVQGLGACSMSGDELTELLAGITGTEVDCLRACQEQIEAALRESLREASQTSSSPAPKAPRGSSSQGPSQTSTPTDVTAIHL

With `CC(=O)c1c(C)c2cnc(Nc3ccc(N4CCN(S(=O)(=O)NCC(C)CN)CC4)cn3)nc2n(C2CCCC2)c1=O` (stereo not drawn) [Compound 5] the pIC50 (CDK6/cyclin D) was > 7.30, the pIC50 (CDK9/cyclin T) was < 5.52 and the diarrhea relief rate ([1]; 10 mg/kg oral, 12 hours before 5-FU and 0 hours after 5-FU) was 25%. For the same compound, the diarrhea relief rate ([1]; 25 mg/kg oral, 6 hours before and 6 hours after 5-FU) was 40%, the diarrhea relief rate ([1]; 50 mg/kg oral, 8 hours before 5-FU and 4 hours after 5-FU) was 30% and the diarrhea relief rate ([1]; 100 mg/kg oral, 4 hours before 5-FU and 8 hours after 5-FU) was 40%. The “diarrhea relief rate” value ([2]; 5 mg/kg oral, 4 hours before and 8 hours after irinotecan) was 25%, the “diarrhea relief rate” value [2, 4] was 50% and the “diarrhea relief rate” value ([2]; 50 mg/kg oral, 8 hours before irinotecan and 4 hours after irinotecan) was 50%. The “diarrhea relief rate” value ([2]; 100 mg/kg oral, 10 hours before irinotecan and 2 hours after irinotecan) was 35%, the pIC50 (CDK7/cyclin H) was < 5.00 and the “Relief rate of 5-FU -induced cell apoptosis” value (shortened to “Relief rate of 5-FU”) ([3]; concentration 0.5 μM) was 10%. The “Relief rate of 5-FU” value ([3]; concentration 5 μM) was 50%, the “Relief rate of 5-FU” value ([3]; concentration 50 μM) was 40% and the “Relief rate of 5-FU” value ([3]; concentration 100 μM) was 30%.
In the case of `CC(=O)c1c(C)c2cnc(Nc3ccc(N4CCN(S(=O)(=O)NCC(C)(C)CN)CC4)cn3)nc2n(C2CCCC2)c1=O` [Compound 6], the pIC50 (CDK6/cyclin D) was > 7.00, the pIC50 (CDK9/cyclin T) was < 6.00 and the diarrhea relief rate ([1]; 10 mg/kg oral, 10 hours before 5-FU and 2 hours after 5-FU) was 60%. The diarrhea relief rate ([1]; 25 mg/kg oral, 8 hours before 5-FU and 4 hours after 5-FU) was 75%, the diarrhea relief rate ([1]; 50 mg/kg oral, 6 hours before and 6 hours after 5-FU) was 80% and the diarrhea relief rate ([1]; 100 mg/kg oral, 12 hours before 5-FU) was 50%. The “diarrhea relief rate” value ([2]; 10 mg/kg oral, 4 hours before and 8 hours after irinotecan) was 50%, the “diarrhea relief rate” value ([2]; 25 mg/kg oral, 4 hours before and 8 hours after irinotecan) was 85% and the “diarrhea relief rate” value [2, 4] was 60%. For the same compound, the “diarrhea relief rate” value ([2]; 100 mg/kg oral, 12 hours before irinotecan) was 40%, the pIC50 (CDK7/cyclin H) was < 5.52 and the “Relief rate of 5-FU” value ([3]; concentration 0.1 μM) was 20%. The “Relief rate of 5-FU” value ([3]; concentration 1 μM) was 40%, the “Relief rate of 5-FU” value ([3]; concentration 5 μM) was 60% and the “Relief rate of 5-FU” value ([3]; concentration 25 μM) was 70%.
